Data from patent publication US8614333B2, “Acenaphtho heterocyclic compound and application thereof” (Dalian University of Technology, priority 2010, dated 2013).

What was measured:
[1] = biological target: T1, interaction between Bcl-2 and Bax (Homo sapiens, UniProt P10415); experiment: Intracellular FRET, Bcl-2-CFP/Bax-YFP in Hela cells; assay type: cell-based; conditions: for Time (time period after which the interaction between Bcl-2 and Bax was interfered): at the concentration given
T1 construct: expressed in transfected cells; host or cells: Hela cells
Experimental: 2 μg of Bcl-2-CFP and Bax-YFP plasmids were transfected separately or simultaneously into Hela cells by using calcium phosphate coprecipitation method, 24 hours later, the cells were inoculated in a 6-well plate (2×10^5 cells/well), and the compound 1 to be detected dissolved in DMSO was added there into until the final concentration (2, 5, 10 and 15 μM) was achieved. 24 hours later (please refer to FIG. 5); the cells were washed with PBS for three times. The fluorescence value was detected by GENIOS fluorescence enzyme-labelled meter (TECAN, Swiss). In time-dependent experiment, the transfected cells were inoculated in a 6-well plate, after that, 40 μM of the compound was added thereinto. 3, 6 and 24 hours later (FIG. 6), the fluorescence intensities were detected by plate reader. As for the cell group in which only Bcl-2-CFP plasmid was transfected, the values at 475 nm emission wave length and 433 nm excitation wave length were recorded. As for the cell group in which only Bax-YFP plasmid was transfected, the values at 527 nm emission wave length and 505 nm excitation wave length were recorded. As for the cell group in which Bcl-2-CFP and Bax-YFP plasmids were co-transfected, the values at 527 nm and 475 emission wave lengths and 433 nm excitation wave length were recorded. The ratio of fluorescence intensity at 527 nm and 475 nm emission wave lengths was FRET. The FRET for the control group in which the plasmid was solely transfected was set as 1.0. […] In the cotransfected cells, the FRET increased up to 2.0 due to the interaction of Bcl-2 protein and Bax protein, and that the interference to the interaction between the two proteins increased and FRET decreased with the increase of the drug concentration and time. The cellular vitality was detected by MTT method. When the concentration of the compound reached 1 μM, the interaction between Bcl-2 and Bax can be interfered after 2 hours, and the results appeared concentration-time dependent trend.
Wherein the concentration and time meant that the detected compound interfered with the interaction between Bcl-2 and Bax at the concentration for the time period.

[2] = tested on: BAX shift towards the chondriosome; experiment: Co-localization between Bax protein and chondriosome, Bax-YFP in MCF-7 cells; assay type: cell-based; conditions: for Doses (concentration at which the compound drove the BAX to shift towards the chondriosome): Bax-YFP/Mito Tracker Red; for Time (time period after which BAX shifted towards the chondriosome): at the concentration given
Experimental: 5 μg of Bax-YFP plasmid was transfected into MCF-7 cells by using calcium phosphate coprecipitation method, 24 hours later, the cells were inoculated in a 6-well plate (0.2×10^6 cells/well), and 10 μM of the compound 1 to be detected was added thereinto. 6 hours later, the cells were washed with PBS and hatched away from light with 50 nM Mito Tracker Red CMXRos (chondriosome specific probes; red) for 10 minutes. Then the cells were washed with PBS for three times, and the fluorescent image was scanned with Radiance2000 laser confocal microscopy (Bio-Rad, USA). Meanwhile, dual channel scanning was carried out, one channel was used to scan the green fluorescence of Bax-YFP, and the other channel was used to scan the red fluorescence of the CMXRos probe for indicating the chondriosome. […] When the Bax protein was localized on the chondriosome, the green and red fluorescence was superimposed into orange, as shown in FIG. 7.
Other 24 compounds were detected by the same experimental method as described above. […] Wherein the concentration and time meant that the detected compound simulated the BH3-only protein and driven the BAX to shift towards the chondriosome at the concentration for the time period.

[3] = tested on: MCF-7 cells transfected with BAX/BAK interfering plasmid; experiment: Cytotoxicity by MTT, cells transfected with BAX/BAK interfering plasmid; assay type: cell-based; conditions: Homo sapiens, MCF7; MCF-7 with BAX/BAK interfering plasmid, MTT, 48 hours
Experimental: (§1) 3 μg of BAX/BAK interfering plasmid was transfected into MCF-7 cells by using calcium phosphate coprecipitation method, 24 hours later, the cells were collected. The expressions after the BAX and BAK proteins interfered with RNA was detected by Western, and the cell groups without plasmid transfection were treated similarly and were set as the control group. The transfected cells were inoculated in a 96-well plate (1×10^5 cells/well), the control experiment of the cell group without plasmid transfection was carried out in parallel. The compound 1 to be detected was added thereinto according to the concentration gradient designed before the experiment. 48 hours later, the cellular vitality was detected by MTT. The experimental results were shown in FIG. 9, Gossypol as nonspecific BH3 analogue was treated in parallel.
(§2) Other 24 compounds were also detected by the same experimental method as described above, the differences of IC50 values between the transfected cells and the without plasmid transfection cells were compared.

MCF-7 cells = experiment: Cytotoxicity by MTT, cells without plasmid transfection; assay type: cell-based; conditions: Homo sapiens, MCF7; MCF-7, MTT, 48 hours; read-out: IC50 value in untransfected cells
Experimental: as §1, §2

GST-Bcl-2 protein = GST-Bcl-2 protein (Homo sapiens, UniProt P10415); experiment: Fluorescence polarization assay, competition with FAM-Bid peptide for Bcl-2; conditions: GST-Bcl-2 40 nM, FAM-Bid 5 nM, 4 hours of incubation, read-out: Bcl-2 binding constants
Experimental: (§3) A Bid BH3 peptide (amino acids: 79-99: […]) having 21 amino acids was synthesized and marked with 6-carboxyfluorescein N-succinimidyl ester (FAM) as fluorescent tag (FAM-Bid) at the N-terminal. The reaction system used in the competitive binding experiment was GST-Bcl-2 protein (40 nM) or Mcl-1 protein, which was dissolved in the reaction buffer (100 mM K3PO4, pH 7.5; 100 μg/ml bovine γ albumin; 0.02% sodium azide) together with FAM-Bid polypeptide (5 nM). In a 96-well plate, 100 µL of the reaction system was added into each well. Then 1 μL different concentration of compound 13 mother solution to be detected dissolved in DMSO was added there into until the final concentration met the experimental design requirements. Meanwhile, two control groups were established, one with the reaction system only containing Bcl-2 or Mcl-1 and FAM-Bid (equivalent to 0% inhibition rate), the other with the reaction system only containing FAM-Bid peptide. After 4 hours of incubation, the 96-well plate was detected by enzyme-labelled meter. The fluorescent polarization value (mP) was tested at […]. Ki value was deduced according to calculation formula.
(§4) The BH3 analogous degrees of other 12 compounds were detected by using the experimental method as described above.

Mcl-1 protein = Mcl-1 protein (Homo sapiens, UniProt Q07820); experiment: Fluorescence polarization assay, competition with FAM-Bid peptide for Mcl-1; conditions: FAM-Bid 5 nM, 4 hours of incubation, read-out: Mcl-1 binding constants
Experimental: as §3, §4

His-tagged Mcl-1 protein = His-tagged Mcl-1 protein (Homo sapiens, UniProt Q07820); experiment: ELISA assay, competitive binding to Mcl-1 protein (biotin-Bim/streptavidin plate); conditions: 20 nM His-tagged Mcl-1, method calculates average IC50, read-out: Mcl-1 binding constants
Experimental: (§5) The present inventors used fluorescence polarization assay to detect the bonding force between the protein and the compounds in a previous study (PCT/CN2010/075521). […] ELISA assay was used to detect the bonding force between the compounds and the protein in this application.
(§6) Biotinylated Bim peptide was diluted to 0.09 μg/mL in SuperBlock blocking buffer in PBS and incubated for 1.5 h in 96-well microtiter plates already coated with streptavidin to allow the formation of the complex between Biotin-Bim and streptavidin. All incubations were performed at room temperature unless otherwise noted. Each inhibitor was first dissolved in pure DMSO to obtain a 10 mM stock solution. For each tested inhibitor, different concentrations of the inhibitor were incubated with 20 nM His-tagged Mcl-1 protein in PBS for 1 h with a final DMSO concentration of 4%. The plates were washed three times with PBS containing 0.05% Tween-20. The inhibitor and protein mixture (100 μL) were transferred to the plate containing the biotin-Bim/streptavidin complex and incubated for 2 h. The plate was then washed as before and mouse anti-His antibody that conjugated with horseradish peroxidase was added into the wells and incubated for 1 h. The plate was then washed with PBS containing 0.05% Tween-20. Finally, TMB was added to each well; the enzymatic reaction was stopped after 30 min by addition of H2SO4 (100 μL, 2M). Absorbances were measured with a TECAN GENios (Swiss, TECAN) microplate reader using a wavelength of 450 nm. Three independent experiments were performed with each inhibitor to calculate average IC50 value and standard deviation (SD).
(§7) The BH3 analogous degrees of other 11 compounds were detected by using the experimental method as described above. The protein binding constant (binding constant in table 1) between them and Bcl-2 and Mcl-1 proteins were also on nM grade.

Mcl-1 = experiment: Western blotting, semiquantitative analysis of Mcl-1 protein bands; assay type: cell-based; conditions: control = 1, tumor cells
Experimental: (§8) The interest protein was detected by the corresponding antibody. The expression of the interest protein in the cells was detected by horseradish peroxidase-labeled secondary antibodies in combination with ECL coloration method. […] The concentration of the protein bands in the Western images were carried out semiquantitative analysis and normalization treatment with KODAK Gel Logic 1500 imaging system software.

Bcl-2 = experiment: Western blotting, semiquantitative analysis of Bcl-2 protein bands; assay type: cell-based; conditions: control = 1, tumor cells
Experimental: as §8

Bcl-2 protein = Bcl-2 protein (Homo sapiens, UniProt P10415); experiment: ELISA assay, competitive binding to Bcl-2 protein (biotin-Bim/streptavidin plate); conditions: method calculates average IC50, read-out: Bcl-2 binding constants
Experimental: as §5, §6, §7

Sequence of Mcl-1 protein (Q07820 whole entry, species assumed): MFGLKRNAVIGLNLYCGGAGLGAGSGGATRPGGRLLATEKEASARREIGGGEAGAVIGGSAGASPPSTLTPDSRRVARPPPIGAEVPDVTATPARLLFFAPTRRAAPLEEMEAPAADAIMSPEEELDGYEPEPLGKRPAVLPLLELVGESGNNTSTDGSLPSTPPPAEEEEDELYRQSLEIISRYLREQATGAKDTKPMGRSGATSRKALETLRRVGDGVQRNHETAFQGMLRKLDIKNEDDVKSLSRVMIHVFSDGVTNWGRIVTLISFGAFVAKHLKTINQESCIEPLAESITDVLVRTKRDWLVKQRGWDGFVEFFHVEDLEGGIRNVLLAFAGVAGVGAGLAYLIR
Sequence of GST-Bcl-2 protein (P10415 whole entry): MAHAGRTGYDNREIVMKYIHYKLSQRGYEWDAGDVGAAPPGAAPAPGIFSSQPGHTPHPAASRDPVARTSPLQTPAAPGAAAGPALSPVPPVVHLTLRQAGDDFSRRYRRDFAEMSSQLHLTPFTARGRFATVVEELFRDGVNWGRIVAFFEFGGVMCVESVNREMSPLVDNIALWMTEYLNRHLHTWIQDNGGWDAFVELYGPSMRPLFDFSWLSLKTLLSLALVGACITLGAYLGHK
T1 sequence (P10415 whole entry): as above
Sequence of His-tagged Mcl-1 protein (Q07820 whole entry): as the sequence (Q07820 whole entry, species assumed) above
Sequence of Bcl-2 protein (P10415 whole entry, species assumed): as the sequence (P10415 whole entry) above

Row | SMILES | Doses (concentration at which the compound interfered with the interaction between Bcl-2 and Bax) [1] [µM] | Time (time period after which the interaction between Bcl-2 and Bax was interfered) [1] [h] | Doses (concentration at which the compound drove the BAX to shift towards the chondriosome) [2] [µM] | Time (time period after which BAX shifted towards the chondriosome) [2] [h] | IC50 [3] [µM] | IC50 (MCF-7 cells) [µM] | Ki (GST-Bcl-2 protein) [nM] | Ki (Mcl-1 protein) [nM] | melting point [°C] | IC50 (His-tagged Mcl-1 protein) [nM] | concentration of the protein bands (semiquantitative, normalized), Mcl-1 (Mcl-1; 2 h) | concentration of the protein bands (semiquantitative, normalized), Mcl-1 (Mcl-1; 6 h) | concentration of the protein bands (semiquantitative, normalized), Bcl-2 (Bcl-2; 6 h) | concentration of the protein bands (semiquantitative, normalized), Bcl-2 (Bcl-2; 12 h) | concentration of the protein bands (semiquantitative, normalized), Bcl-2 (Bcl-2; 18 h) | concentration of the protein bands (semiquantitative, normalized), Bcl-2 (Bcl-2; 24 h) | IC50 (Bcl-2 protein) [nM]
1 | CC(C)Cc1ccc(Oc2ccc3c4c(cccc24)C2=C(C#N)C(=O)N=C23)cc1 [Compound 16, 4-(4-Isobutyl-phenoxy)-8-oxo-8H-acenaphtho[1,2-b]pyrrole-9-carbonitrile] | 0.5 | 3 | 4.0 | 3 | > 50 | 8.5 | 210 | 56 | – | – | – | – | – | – | – | – | –
2 | N#CC1=C2C(=NC1=O)c1ccc(C(=O)c3ccc(CN)cc3)c3cccc2c13 [Compound 25, 4-(4-Aminomethyl-benzoyl)-8-oxo-8H-acenaphtho[1,2-b]pyrrole-9-carbonitrile] | 0.6 | 4 | 6.0 | 4 | > 50 | 6.5 | 115 | 135 | – | – | – | – | – | – | – | – | –
3 | CCCCNC1=C2C(=NC1=O)c1cccc3c(Sc4ccc(Br)cc4)ccc2c13 [Compound 7, 3-(4-Bromo-phenylsulfanyl)-9-butylamino-acenaphtho[1,2-b]pyrrol-8-one] | 0.3 | 3 | 0.5 | 3 | > 50 | 1.2 | – | – | 245 to 246 | 14 | 0.68 | 0.32 | 0.99 | 0.99 | 0.51 | 0.20 | 66
4 | CC(C)Cc1ccc(Sc2ccc3c4c(cccc24)C2=C(C#N)C(=O)N=C23)cc1 [Compound 19, 4-(4-Isobutyl-phenylsulfanyl)-8-oxo-8H-acenaphtho[1,2-b]pyrrole-9-carbonitrile] | 0.3 | 3 | 3.0 | 3 | > 50 | 2.2 | 23 | 85 | – | – | – | – | – | – | – | – | –
5 | CCCCNC1=C2C(=NC1=O)c1cccc3c(Oc4ccc(C(C)C)cc4)ccc2c13 [Compound 11, 9-Butylamino-3-(4-isopropyl-phenoxy)-acenaphtho[1,2-b]pyrrol-8-one] | 0.3 | 2 | 0.9 | 3 | > 50 | 4.2 | – | – | 243 to 244 | 46 | 0.70 | 0.34 | 0.99 | 0.99 | 0.57 | 0.22 | 112
6 | CCCCCCOc1ccc2c3c(cccc13)C1=NC(=O)C(C(=O)O)=C12 [Compound 26, 3-Hexyloxy-8-oxo-8H-acenaphtho[1,2-b]pyrrole-9-carboxylic acid] | 0.5 | 5 | 5.0 | 5 | > 50 | 6.2 | 105 | 85 | – | – | – | – | – | – | – | – | –
